Experimental data from ChEMBL document CHEMBL1128962, “Serotoninergic 5-HT3 and 5-HT4 receptor activities of dihydrobenzofuran carboxylic acid derivatives” (Bioorg Med Chem Lett, 1996).

Assays:
[1] = target: Serotonin 3 (5-HT3) receptor (Homo sapiens) (UniProt P46098+A5X5Y0+O95264+Q70Z44+Q8WXA8); experiment: In vitro 5-hydroxytryptamine 3 receptor activity in guinea pig ileum; assay type: tissue-based; conditions: Cavia porcellus, target entry is the homologue from another species
[2] = target: T1, 5-hydroxytryptamine receptor 4 (Rattus norvegicus, UniProt Q62758); experiment: In vitro relaxation of carbachol pre-contracted rat oesophageal TMM.; assay type: functional
T1 sequence (Q62758 whole entry): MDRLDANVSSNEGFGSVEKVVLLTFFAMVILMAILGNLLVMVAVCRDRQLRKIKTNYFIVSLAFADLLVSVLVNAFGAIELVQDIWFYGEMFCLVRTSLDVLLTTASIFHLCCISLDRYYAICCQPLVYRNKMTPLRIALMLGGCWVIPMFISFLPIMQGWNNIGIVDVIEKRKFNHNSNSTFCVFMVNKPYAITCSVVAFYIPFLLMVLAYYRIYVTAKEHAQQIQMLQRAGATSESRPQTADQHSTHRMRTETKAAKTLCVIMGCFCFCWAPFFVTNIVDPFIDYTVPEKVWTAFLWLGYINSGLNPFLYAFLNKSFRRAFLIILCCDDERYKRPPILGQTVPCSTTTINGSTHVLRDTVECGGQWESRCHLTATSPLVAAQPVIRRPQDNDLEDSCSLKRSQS

[3] = target: T1, 5-hydroxytryptamine receptor 4; experiment: Binding affinity at 5-hydroxytryptamine 4 receptor in rat striatum by [3H]GR-113808 displacement.; assay type: tissue-based
[4] = target: T2, Serotonin 3 (5-HT3) receptor (Rattus norvegicus, UniProt P35563+Q9JJ16); experiment: Binding affinity at 5-hydroxytryptamine 3 receptor in rat entorhinal cortex by [3H]BRL-43694 displacement.; assay type: tissue-based
T2 sequence (P35563 whole entry): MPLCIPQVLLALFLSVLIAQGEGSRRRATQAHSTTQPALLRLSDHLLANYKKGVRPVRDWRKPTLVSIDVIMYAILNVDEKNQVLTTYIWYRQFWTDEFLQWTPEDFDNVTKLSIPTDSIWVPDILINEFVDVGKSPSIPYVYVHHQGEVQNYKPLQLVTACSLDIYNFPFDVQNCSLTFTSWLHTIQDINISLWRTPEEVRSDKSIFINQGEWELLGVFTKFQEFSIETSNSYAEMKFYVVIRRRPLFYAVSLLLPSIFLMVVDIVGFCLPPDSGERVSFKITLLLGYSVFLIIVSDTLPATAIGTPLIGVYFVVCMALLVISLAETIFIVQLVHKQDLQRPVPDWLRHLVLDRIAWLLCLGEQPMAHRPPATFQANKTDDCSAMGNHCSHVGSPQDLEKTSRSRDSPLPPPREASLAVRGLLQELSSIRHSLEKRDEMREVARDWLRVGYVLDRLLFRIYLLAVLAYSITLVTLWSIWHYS
T2 sequence (Q9JJ16 whole entry): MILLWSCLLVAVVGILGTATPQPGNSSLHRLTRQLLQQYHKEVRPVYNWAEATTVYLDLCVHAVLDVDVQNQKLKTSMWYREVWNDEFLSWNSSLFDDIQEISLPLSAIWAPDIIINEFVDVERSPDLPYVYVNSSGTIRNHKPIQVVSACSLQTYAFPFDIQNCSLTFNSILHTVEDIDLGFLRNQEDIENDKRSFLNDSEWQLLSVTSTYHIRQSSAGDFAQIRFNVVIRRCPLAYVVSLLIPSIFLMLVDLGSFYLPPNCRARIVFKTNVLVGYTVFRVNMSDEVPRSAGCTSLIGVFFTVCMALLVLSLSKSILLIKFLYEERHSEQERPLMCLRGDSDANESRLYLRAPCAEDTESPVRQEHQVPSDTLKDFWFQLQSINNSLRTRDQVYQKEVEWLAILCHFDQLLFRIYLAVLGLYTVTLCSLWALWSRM

[5] = target: 5-hydroxytryptamine receptor 4 (Rattus norvegicus) (UniProt Q62758); experiment: In vitro 5-hydroxytryptamine 4 receptor activity by using carbachol-precontracted esophageal tunica muscularis mucosae.
Sequence of 5-hydroxytryptamine receptor 4 (Rattus norvegicus) (Q62758 whole entry): as the sequence (Q62758 whole entry) above

[6] = target: 5-hydroxytryptamine receptor 4 (Rattus norvegicus) (UniProt Q62758); experiment: In vitro 5-hydroxytryptamine 4 receptor activity by using carbachol-precontracted esophageal tunica muscularis mucosae; No activity up to 104M concentration

Row | Structure (SMILES) | Kb [1] [µM] | EC50 [2] [µM] | Ki [3] [µM] | Ki [4] [µM] | Kb [5] [µM] | Kb [6] [µM]
1 | O=C(N[C@@H]1CN2CCC1CC2)c1cccc2c1OCC2 | 0.0407 | > 10 | > 1 | 0.0014 | > 1 | 
2 | Nc1c(Cl)cc(C(=O)NCCCN2CCCCC2)c2c1CCO2 |  | 0.0193 | 0.0096 | > 10 |  | 
3 | Nc1c(Cl)cc(C(=O)NCCN2CCCCC2)c2c1CCO2 |  | 0.0354 | 0.041 | 0.38 |  | 
4 | Nc1c(Cl)cc(C(=O)N[C@@H]2CN3CCC2CC3)c2c1CCO2 | 0.0038 | 0.0186 | 0.017 | 0.0001 |  | 0.0186
5 | COc1cc(N)c(Cl)cc1C(=O)N[C@@H]1CN2CCC1CC2 |  | 0.0559 | 0.131 | 0.00011 |  | 
6 | O=C(N[C@H]1CN2CCC1CC2)c1cccc2c1OCC2 |  | > 1 | > 10 | 0.014 | > 1 | 
7 | CCCC[N+]12CCC(CC1)[C@H](NC(=O)c1cc(Cl)c(N)c3c1OCC3)C2 |  | 0.0085 | 0.0019 | 0.073 |  | 
8 | Nc1c(Cl)cc(C(=O)OCCCN2CCCCC2)c2c1CCO2 |  | 0.00743 | 0.0045 | 1.18 |  | 
9 | O=C(N[C@H]1CN2CCC1CC2)c1cc(Cl)cc2c1OCC2 | 0.038 | > 1 | 0.28 | 0.001 | > 1 | 
10 | CCCCN1CCC(COC(=O)c2cc(Cl)c(N)c3c2OCC3)CC1 |  | 0.00185 | 0.00013 | 0.25 |  | 
11 | O=C(N[C@@H]1CN2CCC1CC2)c1cc(Cl)cc2c1OCC2 | 0.0218 | > 10 | 0.17 | 0.001 | > 0.1 | 
12 | Nc1ccc(C(=O)N[C@@H]2CN3CCC2CC3)c2c1CCO2 | 0.0446 | > 10 | > 1 | 0.001 | > 0.1 | 
13 | Nc1c(Cl)cc(C(=O)OCCN2CCCCC2)c2c1CCO2 |  | 0.00202 | 0.00094 | 0.11 |  | 
14 | Nc1ccc(C(=O)N[C@H]2CN3CCC2CC3)c2c1CCO2 |  | > 1 | > 1 | 0.02 | > 1 | 
15 | CCCCN1CCC(CNC(=O)c2cc(Cl)c(N)c3c2OCC3)CC1 |  | 0.00449 | 0.0019 | 0.057 |  | 
16 | Nc1c(Cl)cc(C(=O)N[C@H]2CN3CCC2CC3)c2c1CCO2 | 0.0339 | 0.195 | 0.115 | 0.001 |  | 
17 | CCN(CC)CCNC(=O)c1cc(Cl)c(N)cc1OC [METOCLOPRAMIDE] |  |  |  | 0.49 |  | 
18 | CCCC[N+]12CCC(CC1)[C@@H](NC(=O)c1cc(Cl)c(N)c3c1OCC3)C2 |  | 1.36 | 0.42 | 0.01 |  | 
